Measurements published in PubChem BioAssay AID1794824.

Biological target: Sodium- and chloride-dependent taurine transporter (Homo sapiens) (UniProt P31641)
Assay: taurine transporter SLC6A6 activation, membrane depolarization – cell-based, membrane potential dye, HEK-293, SLC6A6 overexpression, dose response (AID 1794824)
Details: HEK-293 SLC6A6 OE, FLIPR membrane potential dye

Sequence of Sodium- and chloride-dependent taurine transporter (Homo sapiens) (P31641 whole entry, looked up): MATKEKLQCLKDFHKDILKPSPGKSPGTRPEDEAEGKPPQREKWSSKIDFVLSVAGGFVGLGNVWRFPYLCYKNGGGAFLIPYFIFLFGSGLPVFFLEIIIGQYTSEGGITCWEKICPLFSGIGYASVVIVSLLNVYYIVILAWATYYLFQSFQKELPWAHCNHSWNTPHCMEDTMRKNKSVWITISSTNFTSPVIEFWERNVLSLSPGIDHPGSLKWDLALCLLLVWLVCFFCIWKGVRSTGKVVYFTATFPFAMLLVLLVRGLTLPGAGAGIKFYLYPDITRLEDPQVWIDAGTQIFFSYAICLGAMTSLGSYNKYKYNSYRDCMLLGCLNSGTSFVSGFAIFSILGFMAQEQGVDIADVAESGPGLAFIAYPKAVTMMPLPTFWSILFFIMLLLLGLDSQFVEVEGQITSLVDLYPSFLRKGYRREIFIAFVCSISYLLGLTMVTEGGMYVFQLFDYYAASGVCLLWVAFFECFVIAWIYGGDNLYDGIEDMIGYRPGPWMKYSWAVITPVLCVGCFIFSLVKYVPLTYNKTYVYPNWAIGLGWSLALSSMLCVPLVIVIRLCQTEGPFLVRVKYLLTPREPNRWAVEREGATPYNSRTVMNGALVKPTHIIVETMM

Structure (SMILES)	EC50
NCCCC(=O)O	354 µM
NCCS(=O)(=O)O	10 µM
